# From ChEMBL document CHEMBL3886751, “Disubstituted beta-lactones as inhibitors of N-acylethanolamine acid amidase (NAAA)” (2016)
# Key:
# [1] = target: T1, N-acylethanolamine-hydrolyzing acid amidase (Rattus norvegicus, UniProt Q5KTC7); experiment: Enzymatic Assay: Lysosomal NAAA protein preparation were obtained by homogenizing male Sprague-Dawley rat lungs (Charles River) in 20 mM Tris-HCl buffer pH 7.4 containing 0.32M sucrose. Samples were centrifuged at 800×g for 15 minutes at 4° C. Supernatants were then centrifuged at 12,000 g for 30 minutes at 4° C. Pellets were then resuspended in PBS pH 7.4 and subjected to a freeze/thaw cycle at −80° C. The suspension was finally centrifuged at 105,000×g for 1 hour at 4° C. The supernatant was then used in the enzymatic assay.
# T1 sequence (Q5KTC7 whole entry): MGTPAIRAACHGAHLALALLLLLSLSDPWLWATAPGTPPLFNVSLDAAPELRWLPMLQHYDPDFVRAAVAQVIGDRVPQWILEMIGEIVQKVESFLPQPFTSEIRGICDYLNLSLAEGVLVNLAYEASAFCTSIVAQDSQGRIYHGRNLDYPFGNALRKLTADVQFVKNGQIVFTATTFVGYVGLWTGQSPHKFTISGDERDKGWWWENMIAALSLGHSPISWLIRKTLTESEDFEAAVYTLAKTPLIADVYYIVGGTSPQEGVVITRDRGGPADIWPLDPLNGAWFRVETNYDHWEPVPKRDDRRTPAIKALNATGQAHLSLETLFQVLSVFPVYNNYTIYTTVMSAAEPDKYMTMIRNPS
# [2] = target: T2, N-acylethanolamine-hydrolyzing acid amidase (Homo sapiens, UniProt Q02083); experiment: UPLC/MS Assay: NAAA protein preparation (10 ug) was pre-incubated with various concentrations of test compound or vehicle control in 100 mM NaH2PO4, 100 mM Tri Sodium Citrate Dehydrate, 0.1% Triton-X 100, 3 mM DTT, pH 4.5 for 30 min at 37° C. Duplicate samples were then incubated with 50 uM C17:1 10-cis-heptadecenoylethanolamide (Avanti Polar Lipids, Alabaster, Ala. USA) at 37° C. for 30 minutes. The reaction was terminated by the addition of 0.2 mL of cold methanol containing 1 nmol of heptadecanoic acid (NuChek Prep, Elysian, Minn. USA) as internal standard. Samples were then analyzed by UPLC/MS. Heptadecenoic and heptadecanoic acids were eluted on an Acquity UPLC BEH C18 column (50 mm length, 2.1 mm i.d., 1.7 um pore size, Waters) isocratically at 0.5 mL/min for 1.5 min with a solvent mixture of 95% methanol and 5% water, both containing 0.25% Acetic Acid and 5 mM Ammonium Acetate. The column temperature was 40° C. Electrospray ionization was in the negative mode, capillary voltage was 0.5 kV, […], desolvation temperature was 500° C. N2 was used as drying gas at a flow rate of 1000 L/hour and a temperature of 500° C. The [M-H]- ion was monitored in the selected-ion monitoring mode (m/z values: heptadecenoic acid 267.37, heptadecanoic acid 269.37). Calibration curves were generated using commercial heptadecenoic acid (NuCheck Prep). […]
# T2 sequence (Q02083 whole entry): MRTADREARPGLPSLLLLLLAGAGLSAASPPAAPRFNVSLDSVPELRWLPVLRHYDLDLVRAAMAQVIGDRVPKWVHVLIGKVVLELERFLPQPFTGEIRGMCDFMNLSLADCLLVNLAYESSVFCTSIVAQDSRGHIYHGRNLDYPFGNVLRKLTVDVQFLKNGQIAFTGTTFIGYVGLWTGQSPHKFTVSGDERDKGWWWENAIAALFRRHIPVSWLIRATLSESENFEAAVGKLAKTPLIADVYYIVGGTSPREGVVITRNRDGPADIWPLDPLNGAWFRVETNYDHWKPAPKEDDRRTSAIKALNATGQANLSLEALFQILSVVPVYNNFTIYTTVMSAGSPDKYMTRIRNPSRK
# [3] = target: T2, N-acylethanolamine-hydrolyzing acid amidase; experiment: Fluorogenic Assay: The assay was run in Optiplate 96-wells black plates, in a total reaction volume of 200 μL. NAAA protein preparation (4.0 μg) was pre-incubated for 10 min with various concentrations of test compounds or vehicle control (5% DMSO) in 100 mM citrate/phosphate buffer (pH 4.5) containing 3.0 mM DTT, 0.1% Triton X-100, 0.05% BSA, 150 mM NaCl. N-(4-methyl-2-oxo-chromen-7-yl)-hexadecanamide was used as a substrate (5.0 μM) and the reaction carried over for 30 min at 37° C. The samples were then read in a Perkin Elmer Envision plate reader using an excitation wavelength of 360 nm and emission 460 nm.
IC50 [2],Compound,IC50 [1],IC50 [3]
,C[C@@H]1OC(=O)[C@@H]1NC(=O)OCc1ccc(-c2ccc(C(F)(F)F)cc2)cc1,24 nM,
10 nM,CC(OC(=O)N[C@H]1C(=O)O[C@H]1C)c1ccc(-c2ccccc2)cc1 (mixture of isomers),50 nM,
,CC[C@@H]1OC(=O)[C@@H]1NC(=O)OCc1ccc(-c2ccccc2)cc1 (relative stereo),,15 nM
,CC[C@H]1OC(=O)[C@@H]1NC(=O)OCc1ccc(-c2ccccc2)cc1 (relative stereo),,6 nM
,CC(C)(C)[C@@H]1OC(=O)[C@@H]1NC(=O)OCc1ccc(-c2ccccc2)cc1 (relative stereo),,897 nM
,CC(C)[C@@H]1OC(=O)[C@@H]1NC(=O)OCc1ccc(-c2ccccc2)cc1 (relative stereo),,37 nM
,CC(C)[C@H]1OC(=O)[C@@H]1NC(=O)OCc1ccc(-c2ccccc2)cc1 (relative stereo),,23 nM
,CC(C)(C)[C@H]1OC(=O)[C@@H]1NC(=O)OCc1ccc(-c2ccccc2)cc1 (relative stereo),,465 nM
